Where two headings read alike, the source gives them in different places.
What was measured:
C57BL/6JxFVB hybrid mice [1] = experiment: Offspring body weight and growth after perinatal exposure; type: in vivo; parameters: key to Time of effect: P: permanent effect on body weight throughout study; D: delayed (late onset) of effect; T: transient effect; E: effect observed during treatment; conditions: for Emax: Mus musculus
Description: PFOA was obtained as sodium perfluoro-n-octanoate (PFOA-Na; CAS No. 335-95-5, purity >99 %) and kindly provided by Wellington Laboratories Inc., Ontario, Canada. PFOA-Na was dissolved in acetone and mixed with the diet (NIH-07, Research Diet Services, Wijk bij Duurstede, The Netherlands). Thereafter, acetone was allowed to evaporate, and this master mixture was serially diluted with a factor 3–3.3 by adding NIH-07, and afterward, the diet was pelleted. In this way, seven diet groups and a control NIH-07 (blank acetone was added) were obtained, aiming at concentrations of 0, 0.017, 0.056, 0.17, 0.56, 1.7, 5.6 and 17 mg/kg PFOA in feed, which corresponded to 0, 3, 10, 30, 100, 300, 1000 and 3000 µg/kg bw based on an average food consumption of 4.5 g per mouse (average body weight of 25 g) per day. PFOA concentrations in test diets were confirmed by isotope dilution liquid chromatography mass spectrometry after extraction with methanol (8402, JT Baker, Deventer the Netherlands) and a cleanup with carbon solid phase extraction (ENVI Carb, 57210-U, Supelco, Zwijndrecht, the Netherlands). Actual PFOA concentrations in the food were 15–30 % lower than the nominal values. The non-purified soy-based NIH-07 was chosen because it was originally designed to optimize gestation, lactation and growth of rodents, and avoiding natural phytoestrogens in the diet may have confounding effects (Ruhlen et al. [2008]). Estrogenic and anti-estrogenic activity for this diet was previously analyzed to be low and absent, respectively (van Esterik et al. [2014]).
A high fat diet (D12451, Research Diet Services, Wijk bij Duurstede, The Netherlands), containing 45 kcal % fat (lard) compared with 15 kcal % fat in the NIH-07 diet, was given to all F1 mice during the final weeks of the study (21–28 weeks of age).
After an acclimatization period of 1 week, female F0 mice were fed experimental diets explained above starting 2 weeks before mating and continued during mating (1 week), gestation (3 weeks) and lactation (3 weeks). Each dose group had six F0 females, which were mated three by three with two F0 males for each dose group. […] For every dose group, on average 9 mice per sex (range 6–10) were included for follow-up through juvenile and adult stages, selecting pups proportionally from available litters. F1 males were single-housed, and F1 females were housed in pairs from the same litter in standard Macrolon type I cages. Body weight was measured at postnatal day (PND) 4, 7, 14 and 21 and weekly from 5 weeks of age continuing until the end of the study. Food consumption could not be recorded reliably due to high spillage.
Growth was calculated by dividing body weight of subsequent weeks by body weight at week 5, i.e., at the start of the F1 follow-up.

C57BL/6JxFVB hybrid mice [2] = experiment: Histopathology of brown adipose tissue; type: in vivo
Description: Some measurements included only control and one or two dose groups and could therefore not be analyzed as dose–responses. GTT was therefore evaluated by repeated-measures or nested (to account for litter covariance) two-way ANOVAs (Graphpad Prism 5.0, R) to detect differences at the different time points and between the areas under the curve (AUC). Activity measurement, ucp1 expression, WAT adipocyte size and the proxy for cell number were also tested with a nested ANOVA (R). Differences in distribution of BAT histopathology scores between experimental groups were tested for statistical significance in a two-tailed Fisher’s exact test.

[3] = system: mice (CD-1, NMRI, Balb/c, C57BL/6); parameters: key to Time of effect: P: permanent effect on body weight throughout study; D: delayed (late onset) of effect; T: transient effect; E: effect observed during treatment; conditions: Balb/c and C57BL/6; 1000-5000-10,000 µg/kg bw/d; oral gavage PND21-49 (5d/w); ref Yang et al. ([2009]); cited from earlier work
[4] = C57BL/6JxFVB, 3-10-30-100-300-1000-3000 µg/kg bw/d, diet, 2w pre-mating-PND21, this study
[5] = F1 females, CES 5 %, high fat diet
[6] = females, 300 and 3000 combined, p = 0.097 vs control
[7] = males, 300 and 3000 combined, p < 0.05 vs control

## O=C(O)C(F)(F)C(F)(F)C(F)(F)C(F)(F)C(F)(F)C(F)(F)C(F)(F)F [PFOA, Perfluorooctanoic acid]
C57BL/6JxFVB hybrid mice [1]; [4]
  Endpoint bw (age) F: ↓ PND4–w27
  Endpoint bw (age) M: ↓ PND4–w23
C57BL/6JxFVB hybrid mice [1]; C57BL/6JxFVB, this study, in males not observed during final 2 weeks (w24–25) under high fat diet
  Time of effect: P^d
C57BL/6JxFVB hybrid mice [1]; F1 females, CES 5 %
  Body weight week 21: BMDL: 1239 µg/kg bw/d
  Body weight week 21: BMDU: 3595 µg/kg bw/d
C57BL/6JxFVB hybrid mice [1]; [5]
  Body weight week 27: BMDL: 849 µg/kg bw/d
  Body weight week 27: BMDU: 5645 µg/kg bw/d
C57BL/6JxFVB hybrid mice [1]; F1 males, CES 5 %
  Body weight week 21: BMDL: 1024 µg/kg bw/d
  Body weight week 21: BMDU: 3457 µg/kg bw/d
  Growth week 25/5: BMDL: 948 µg/kg bw/d
  Growth week 25/5: BMDU: 2383 µg/kg bw/d
C57BL/6JxFVB hybrid mice [1]; F1 females, read-out: Body weight week 21: max effect size
  Emax: -8%
C57BL/6JxFVB hybrid mice [1]; F1 females, read-out: Body weight week 27: max effect size
  Emax: -9.1%
C57BL/6JxFVB hybrid mice [1]; F1 females, read-out: Growth week 27/5: max effect size
  Emax: -8.6%
C57BL/6JxFVB hybrid mice [1]; F1 males, read-out: Body weight week 21: max effect size
  Emax: -9.1%
C57BL/6JxFVB hybrid mice [1]; F1 males, read-out: Growth week 25/5: max effect size
  Emax: 11%
C57BL/6JxFVB hybrid mice [1]; females, CES −0.05, Fig. 2c
  Body weight PND4: CED: 0.0628 µg/kg body weight/day
  Body weight PND4: CEDLbt: 2.004e−08 µg/kg body weight/day
  Body weight PND4: CEDUbt: 42.23 µg/kg body weight/day
C57BL/6JxFVB hybrid mice [1]; females, CES −0.05, Fig. 2d
  Body weight week 27: CED: 1560 µg/kg body weight/day
  Body weight week 27: CEDLbt: 849.1 µg/kg body weight/day
  Body weight week 27: CEDUbt: 5645 µg/kg body weight/day
C57BL/6JxFVB hybrid mice [1]; females, standard diet
  Body weight from PND4 until adulthood (week 21): dose-dependently decreased
C57BL/6JxFVB hybrid mice [1]; males
  Body weight at PND4: dose-dependent decrease
C57BL/6JxFVB hybrid mice [1]; males, CES −0.05, Fig. 2a
  Body weight PND4: CEDLbt: 1e−12 µg/kg body weight/day
  Body weight PND4: CEDUbt: 42.23 µg/kg body weight/day
C57BL/6JxFVB hybrid mice [1]; males, CES −0.05, Fig. 2a, unit from legend
  Body weight PND4: CED: 0.0039 µg/kg body weight/day
C57BL/6JxFVB hybrid mice [1]; males, high fat diet, data not shown
  Body weight in weeks 22 and 23: dose-dependent decrease
C57BL/6JxFVB hybrid mice [2]; females vs control females, p = 0.097
  Brown adipose tissue (interscapular fat pad) histopathology: trend for lipid depletion
C57BL/6JxFVB hybrid mice [2]; [6]
  Brown adipose tissue lipid accumulation: count of individuals with Grade 3: 4
  Brown adipose tissue lipid accumulation: count of individuals with Grades 1, 2: 14
C57BL/6JxFVB hybrid mice [2]; males vs control males
  Brown adipose tissue (interscapular fat pad) histopathology: significant lipid accumulation
C57BL/6JxFVB hybrid mice [2]; [7]
  Brown adipose tissue lipid accumulation: count of individuals with Grades 1, 2, 3: 4
  Brown adipose tissue lipid accumulation: count of individuals with Grades 4, 5, 6: 13
[3]
  Endpoint bw (age) F: ↓ PND45-46
  Other relevant effects of PFOA: PND49: delayed vaginal opening; ↑ abs/rel liver weight; inhibition mammary gland/uterine development
  Time of effect: E
